Test results published in BindingDB's records for doi:10.1111/cbdd.12095 (Universite Lille-Nord de France, 2013).

Target: Cannabinoid receptor 2 (Homo sapiens, UniProt P34972)
Experiment: Competition Binding Assay
Excerpt: Competitive binding assay using cannabinoid receptors.

Cannabinoid receptor 2, sequence (P34972 whole entry): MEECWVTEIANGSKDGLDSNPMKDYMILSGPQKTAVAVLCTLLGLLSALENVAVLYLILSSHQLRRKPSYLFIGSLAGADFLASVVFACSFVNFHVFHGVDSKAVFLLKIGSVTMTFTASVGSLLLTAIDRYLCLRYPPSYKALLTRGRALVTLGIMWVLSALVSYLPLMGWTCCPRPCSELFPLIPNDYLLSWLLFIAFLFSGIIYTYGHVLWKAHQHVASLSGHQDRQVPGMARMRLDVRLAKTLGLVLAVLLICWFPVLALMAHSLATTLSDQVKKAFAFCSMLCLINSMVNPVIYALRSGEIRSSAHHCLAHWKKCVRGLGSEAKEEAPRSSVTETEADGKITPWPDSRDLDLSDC

Row | SMILES | Ki [µM]
1 | C#CN1CCC2=C(C1)c1c(O)cc(C(C)C(C)CCCCC)cc1OC2(C)C (stereo not drawn) [CB2 Inhibitor, 1] | 0.0023
2 | Cc1cc(C)c(CNC(=O)c2cc3c(C)nn(Cc4ccc(F)cc4)c3s2)c(=O)[nH]1 [CB2 Inhibitor, 2] | 0.143
3 | CC1N(C)c2ccc(P(=O)(c3ccccc3)c3ccccc3)cc2C1(C)C (stereo not drawn) [CB2 Inhibitor, 3] | 0.54
4 | Cc1cc(C(=O)COc2ccccc2C(N)=O)c(C)n1CCC1=CCCCC1 [CB2 Inhibitor, 4] | 0.96
5 | COc1ccc(CN2CCCn3c4c(c5cc(C)ccc53)CCCC42)cc1O (stereo not drawn) [CB2 Inhibitor, 5] | 2.36
6 | CC1CCCN(Cc2cc(-c3ccc4c(c3)OCO4)ccc2OCC(=O)NCc2ccccc2F)C1 (stereo not drawn) [CB2 Inhibitor, 6] | 4.44
7 | c1ccc2c(c1)CCCC2Nc1nc(CN2CCCCC2)nc2sc3c(c12)CCCC3 (stereo not drawn) [CB2 Inhibitor, 7] | 4.78
8 | O=C(CCC(=O)N1CCC(n2c(=O)[nH]c3ccccc32)CC1)c1ccc2c(c1)CCCC2 [CB2 Inhibitor, 8] | 8.83
9 | CCC(CC)S(=O)(=O)c1cccc(-c2nnc(SCCN(C)C)n2C2CCCCCC2)c1 [CB2 Inhibitor, 9] | 9.27
10 | CCCC(=NNC(=O)C1CC1(c1cccc(C)c1)c1cccc(C)c1)c1ccc(OC)cc1 (stereo not drawn) [CB2 Inhibitor, 10] | 14.7
11 | CC1=CC(C(=O)CN2C(=O)NC(C)(c3ccc(F)cc3)C2=O)=C(C)C1CCc1cccs1 (stereo not drawn) [CB2 Inhibitor, 11] | 36.9
12 | CCCn1c(SCC(=O)NCC2COc3ccccc3O2)nc2sc3c(c2c1=O)CCC3 (stereo not drawn) [CB2 Inhibitor, 12] | 60.9
13 | CN(C)C(CNC(=O)C1(Cc2ccccc2)CCCCC1)c1cccs1 (stereo not drawn) [CB2 Inhibitor, 13] | 71.4
